Results on 16 compounds are retold here after patent US12692254B2, “Benzimidazole inhibitors of PAD enzymes” (BRISTOL-MYERS SQUIBB COMPANY, priority 2018, dated 2026).

pIC50: −log10 of the molar value.

The experiment addresses human PAD4 (hPAD4) (Homo sapiens, UniProt Q9UM07). Briefly: RFMS human PAD4 functional assay (rapid-fire mass spectrum). It counts as biochemical. The note with it: 5 nM hPAD4 enzyme, 250 μM BAEE, 50 μM Calcium; 30 min preincubation, 90 min reaction at 37° C. A digest of the protocol:
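PAD4 (10 nM) preincubated 30 min with compound (top final 50 μM), then BAEE substrate added in pH 7.5 HEPES buffer with DTT, 50 μM calcium, TPEN; 90 min at 37° C. After TCA quench, citrulline derivatized with phenyl glyoxal (4 mM final, 30 min, 37° C) and quantified by RapidFire MS against internal standard.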

human PAD4 (hPAD4), sequence (Q9UM07 whole entry): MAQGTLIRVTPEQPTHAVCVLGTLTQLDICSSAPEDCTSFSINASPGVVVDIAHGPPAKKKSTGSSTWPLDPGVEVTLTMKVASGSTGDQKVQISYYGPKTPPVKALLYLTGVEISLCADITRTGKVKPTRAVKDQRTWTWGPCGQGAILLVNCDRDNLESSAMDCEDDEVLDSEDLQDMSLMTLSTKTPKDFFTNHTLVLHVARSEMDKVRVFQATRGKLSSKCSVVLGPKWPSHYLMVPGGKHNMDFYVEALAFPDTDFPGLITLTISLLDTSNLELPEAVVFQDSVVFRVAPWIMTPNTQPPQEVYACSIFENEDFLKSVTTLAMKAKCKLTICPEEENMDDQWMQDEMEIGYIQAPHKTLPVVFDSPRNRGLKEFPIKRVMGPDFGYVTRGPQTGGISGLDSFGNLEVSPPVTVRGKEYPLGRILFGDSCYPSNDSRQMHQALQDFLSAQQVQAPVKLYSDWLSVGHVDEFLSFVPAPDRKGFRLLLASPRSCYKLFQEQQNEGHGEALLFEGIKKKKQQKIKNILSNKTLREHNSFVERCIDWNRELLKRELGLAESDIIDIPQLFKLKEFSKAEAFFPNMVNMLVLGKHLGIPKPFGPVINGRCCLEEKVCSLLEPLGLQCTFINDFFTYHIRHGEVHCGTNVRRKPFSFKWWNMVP

Take `COc1cc(C(=O)N2C[C@H]3CC[C@@H]2[C@@H]3N)cc2nc(-c3cc4cccnc4n3CC3CC3)n(CC3CN(c4nccnc4C#N)C3)c12` [Example 15, 3-[3-({5-[(1R,4R,7R)-7-amino-2-azabicyclo[2.2.1]heptane-2-carbonyl]-2-[1-(cyclopropylmethyl)-1H-pyrrolo[2,3-b]pyridin-2-yl]-7-methoxy-1H-1,3-benzodiazol-1-yl}methyl)azetidin-1-yl]pyrazine-2-carbonitrile]: the pIC50 is 7.33.
The figure for `COC(=O)N1CC(n2c(-c3cc4cccnc4n3CC3CC3)nc3cc(C(=O)N4C[C@H]5CC[C@@H]4[C@@H]5N)cc(OC)c32)C1` [Example 188, methyl 3-{5-[(1R,4R,7R)-7-amino-2-azabicyclo[2.2.1]heptane-2-carbonyl]-2-[1-(cyclopropylmethyl)-1H-pyrrolo[2,3-b]pyridin-2-yl]-7-methoxy-1H-1,3-benzodiazol-1-yl}azetidine-1-carboxylate] is 6.41.
Then `COc1cc(C(=O)N2CC3(CCCNC3)C2)cc2nc(-c3cc4ccccc4n3CC3CC3)n(Cc3cnn(C)c3)c12` [Example 288, 2-{2-[1-(cyclopropylmethyl)-1H-indol-2-yl]-7-methoxy-1-[(1-methyl-1H-pyrazol-4-yl)methyl]-1H-1,3-benzodiazole-5-carbonyl}-2,6-diazaspiro[3.5]nonane], with 5.89.
On to `COc1cc(C(=O)N2CC3CCC2[C@@H]3N)cc2nc(-c3cc4ccccc4n3CC3CC3)n(Cc3cnn(-c4cnc(C#N)c(F)c4)c3)c12` (stereo partly drawn) [Example 394, 5-[4-({5-[(7R)-7-amino-2-azabicyclo[2.2.1]heptane-2-carbonyl]-2-[1-(cyclopropyimethyl)-1H-indol-2-yl]-7-methoxy-1H-1,3-benzodiazol-1-yl}methyl)-1H-pyrazol-1-yl]-3-fluoropyridine-2-carbonitrile], for which the pIC50 is 7.30.
`COc1cc(C(=O)N2C[C@H]3CC[C@@H]2[C@@H]3N)cc2nc(-c3cc4cccnc4n3C)n(CC3CN(c4ccnc(C#N)n4)C3)c12` [Example 26, 4-[3-({5-[(1R,4R,7R)-7-amino-2-azabicyclo[2.2.1]heptane-2-carbonyl]-7-methoxy-2-{1-methyl-1H-pyrrolo[2,3-b]pyridin-2-yl}-1H-1,3-benzodiazol-1-yl}methyl)azetidin-1-yl]pyrimidine-2-carbonitrile]: the pIC50 was 7.14.
On to `CCc1ccccc1-c1nc2cc(C(=O)N3C[C@H]4CC[C@@H]3[C@@H]4N)cc(OC)c2n1CC1CN(c2cncc(C#N)c2)C1` [Example 312, 5-[3-({5-[(1R,4R,7R)-7-amino-2-azabicyclo[2.2.1]heptane-2-carbonyl]-2-(2-ethylphenyl)-7-methoxy-1H-1,3-benzodiazol-1-yl}methyl)azetidin-1-yl]pyridine-3-carbonitrile], for which the pIC50 was 6.42.
For `COc1cc(C(=O)N2C[C@H]3CC[C@@H]2[C@@H]3N)cc2nc(-c3cc4cccnc4n3CC3CC3)n(CC3CN(c4ccnc(C#N)n4)C3)c12` [Example 5, 4-[3-({5-[(1R,4R,7R)-7-amino-2-azabicyclo[2.2.1]heptane-2-carbonyl]-2-[1-(cyclopropylmethyl)-1H-pyrrolo[2,3-b]pyridin-2-yl]-7-methoxy-1H-1,3-benzodiazol-1-yl}methyl)azetidin-1-yl]pyrimidine-2-carbonitrile], the pIC50 was 7.29.
The figure for `COc1cc(C(=O)N2C[C@H](N)C[C@@H](F)C2)cc2nc(-c3cc4ccccc4n3CC3CC3)n(CCC3CCS(=O)(=O)CC3)c12` [Example 249, ((3R,5R)-3-amino-5-fluoropiperidin-1-yl)(2-(1-(cyclopropylmethyl)-1H-indol-2-yl)-1-(2-(1,1-dioxidotetrahydro-2H-thiopyran-4-yl)ethyl)-7-methoxy-1H-benzo[d]imidazol-5-yl)methanone] is 7.46; for `COc1cc(C(=O)N2CC3CCC2[C@@H]3N)cc2nc(-c3cc4ccccc4n3CC3CC3)n(CC3CN(C(=O)c4ccc(Cl)s4)C3)c12` (stereo partly drawn) [Example 445, (7R)-2-(1-{[1-(5-chlorothiophene-2-carbonyl)azetidin-3-yl]methyl}-2-[1-(cyclopropylmethyl)-1H-indol-2-yl]-7-methoxy-1H-1,3-benzodiazole-5-carbonyl)-2-azabicyclo[2.2.1]heptan-7-amine] it is 7.37.
The figure for `COc1cc(C(=O)N2CC3CCC2[C@@H]3N)cc2nc(-c3cc4ccccc4n3CC3CC3)n(CC3CC(F)(F)C3)c12` (stereo partly drawn) [Example 478, (7R)-2-{2-[1-(cyclopropylmethyl)-1H-indol-2-yl]-1-[(3,3-difluorocyclobutyl)methyl]-7-methoxy-1H-1,3-benzodiazole-5-carbonyl}-2-azabicyclo[2.2.1]heptan-7-amine] is 7.32.
Consider `COc1cc(C(=O)N2C[C@H](N)C[C@@H](F)C2)cc2nc(-c3cc4ccccc4n3CC3CC3)n(CC3CN(C(=O)c4cccc(F)c4)C3)c12` [Example 157, (3R,5R)-1-{2-[1-(cyclopropylmethyl)-1H-indol-2-yl]-1-{[1-(3-fluorobenzoyl)azetidin-3-yl]methyl}-7-methoxy-1H-1,3-benzodiazol-5-carbonyl}-5-fluoropiperidin-3-amine], for which the pIC50 is 7.64.
`COc1cc(C(=O)N2C[C@H]3CC[C@@H]2[C@@H]3N)cc2nc(-c3cc4cccnc4n3CC3CC3)n(C3CN(C(=O)c4ccnc(C)n4)C3)c12` [Example 97, (1R,4R,7R)-2-{2-[1-(cyclopropylmethyl)-1H-pyrrolo[2,3-b]pyridin-2-yl]-7-methoxy-1-[1-(2-methylpyrimidine-4-carbonyl)azetidin-3-yl]-1H-1,3-benzodiazole-5-carbonyl}-2-azabicyclo[2.2.1]heptan-7-amine]: the pIC50 is 7.20.
The figure for `COc1ccc2cc(-c3nc4cc(C(=O)N5C[C@H]6CC[C@@H]5[C@@H]6N)cc(OC)c4n3CC3CN(c4cccc(C#N)n4)C3)n(CC3CC3)c2n1` [Example 54, 6-[3-({5-[(1R,4R,7R)-7-amino-2-azabicyclo[2.2.1]heptane-2-carbonyl]-2-[1-(cyclopropylmethyl)-6-methoxy-1H-pyrrolo[2,3-b]pyridin-2-yl]-7-methoxy-1H-1,3-benzodiazol-1-yl}methyl)azetidin-1-yl]pyridine-2-carbonitrile] is 6.79.
Then `COc1cc(C(=O)N2CC3CCC2[C@@H]3N)cc2nc(-c3cc4ccccc4n3CC3CC3)n(CC3CC3c3ccccc3)c12` (stereo partly drawn) [Example 479, (7R)-2-{2-[1-(cyclopropylmethyl)-1H-indol-2-yl]-7-methoxy-1-[(2-phenylcyclopropyl)methyl]-1H-1,3-benzodiazole-5-carbonyl}-2-azabicyclo[2.2.1]heptan-7-amine], with 6.67; and `COc1cc(C(=O)N2C[C@H]3CC[C@@H]2[C@@H]3N)cc2nc(-c3cc4ccccc4n3C)n(CC3CN(c4ccnc(C)n4)C3)c12` [Example 6, ((1R,4R,7R)-7-amino-2-azabicyclo[2.2.1]heptan-2-yl)(7-methoxy-2-(1-methyl-1H-indol-2-yl)-1-((1-(2-methylpyrimidin-4-yl)azetidin-3-yl)methyl)-1H-benzo[d]imidazol-5-yl)methanone], with 7.11; and `COc1cc(C(=O)N2CC3CCC2[C@@H]3N)cc2nc(-c3cc4cccnc4n3CC3CC3)n(Cc3cnn(-c4cccc(C)n4)c3)c12` (stereo partly drawn) [Example 355, (7R)-2-{2-[1-(cyclopropylmethyl)-1H-pyrrolo[2,3-b]pyridin-2-yl]-7-methoxy-1-{[1-(6-methylpyridin-2-yl)-1H-pyrazol-4-yl]methyl}-1H-1,3-benzodiazole-5-carbonyl}-2-azabicyclo[2.2.1]heptan-7-amine], with 7.66.
